Experiment [1] has as its target T1, kinase domain of cKIT (Homo sapiens, UniProt P10721).
T1 construct: The kinase domain of cKIT was assayed in 50 mM Hepes; purchased Upstate 14-559
Kind of experiment: Inhibition of cKIT kinase signaling in an in vitro biochemical assay (alphascreen). The following applies: tested at about 1 μM, read-out: cKit percent inhibition. For orientation: Alpha assays give light when donor and acceptor beads are brought close together.

Experiment [2] concerns the target T2, kinase domain of PDGFRβ (Homo sapiens, UniProt P09619).
T2 construct: The kinase domain of PDGFRβ was assayed in 50 mM Hepes; purchased Invitrogen P3082
Kind of experiment: Inhibition of PDGFRb kinase signaling in an in vitro biochemical assay (alphascreen). As to conditions: tested at about 1 μM, read-out: PDGFRβ percent inhibition.

Experiment [3] deals with MNFS60 (murine AML cells). Kind of experiment: Cell viability assay in MCSF dependent MNFS60 cells (Cell Titer Glo). Type of experiment: cell-based. The following applies: Mus musculus, tested at about 1 μM, read-out: M-NFS-60 CP percent inhibition. The gist of the method:
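Luminescent ATP signal (CellTiter-Glo) after 72 hrs of compound exposure served as the viability measure. Growth was supported by 10 ng/ml MCSF (final), and EC50 values come from fitted triplicate data.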

The target of experiment [4] is T3, cytoplasmic domain of the human CSF-1R (Homo sapiens, UniProt P07333).
T3 construct: Recombinant protein corresponding to the cytoplasmic domain of the human CSF-1R; purchased Invitrogen Corporation, Carlsbad, Calif; PV3249
T3 sequence (P07333 539-972 limits assumed): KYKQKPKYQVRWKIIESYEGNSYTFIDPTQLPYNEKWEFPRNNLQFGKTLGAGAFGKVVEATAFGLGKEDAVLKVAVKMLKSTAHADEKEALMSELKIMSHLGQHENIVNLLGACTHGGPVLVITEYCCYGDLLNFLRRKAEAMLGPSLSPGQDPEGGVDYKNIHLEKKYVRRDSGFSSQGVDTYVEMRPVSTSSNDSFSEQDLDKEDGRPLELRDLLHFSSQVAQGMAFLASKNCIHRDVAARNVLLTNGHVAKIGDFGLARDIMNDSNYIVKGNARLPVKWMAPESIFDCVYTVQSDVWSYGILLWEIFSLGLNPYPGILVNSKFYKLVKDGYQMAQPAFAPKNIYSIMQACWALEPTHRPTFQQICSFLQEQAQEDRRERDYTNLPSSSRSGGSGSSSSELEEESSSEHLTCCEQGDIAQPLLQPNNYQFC
Kind of experiment: In vitro kinase assay for colony stimulating factor-1 receptor (AlphaScreen). In kind it is biochemical. As to conditions: tested at about 1 μM, read-out: CSF-1R percent inhibition. The procedure, abridged: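 Tyrosine phosphorylation of a peptide substrate by 4 nM recombinant cytoplasmic-domain enzyme is measured at 1 μM ATP in Mn2+/Mg2+-containing Hepes buffer, pH 7.5. Detection uses PT66 AlphaScreen beads after overnight incubation.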

Where two headings read alike, the source gives them in different places.

T1 sequence (P10721 589-937 limits assumed): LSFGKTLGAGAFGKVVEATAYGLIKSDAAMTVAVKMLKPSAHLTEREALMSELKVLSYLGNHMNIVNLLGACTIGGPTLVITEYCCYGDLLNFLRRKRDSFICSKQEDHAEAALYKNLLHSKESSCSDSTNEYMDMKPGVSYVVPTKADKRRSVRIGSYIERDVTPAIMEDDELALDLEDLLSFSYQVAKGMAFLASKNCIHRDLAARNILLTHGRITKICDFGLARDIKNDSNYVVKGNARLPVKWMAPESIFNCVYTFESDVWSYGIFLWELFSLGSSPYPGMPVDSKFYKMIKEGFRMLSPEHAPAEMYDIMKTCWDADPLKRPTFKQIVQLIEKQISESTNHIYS
T2 sequence (P09619 600-962 limits assumed): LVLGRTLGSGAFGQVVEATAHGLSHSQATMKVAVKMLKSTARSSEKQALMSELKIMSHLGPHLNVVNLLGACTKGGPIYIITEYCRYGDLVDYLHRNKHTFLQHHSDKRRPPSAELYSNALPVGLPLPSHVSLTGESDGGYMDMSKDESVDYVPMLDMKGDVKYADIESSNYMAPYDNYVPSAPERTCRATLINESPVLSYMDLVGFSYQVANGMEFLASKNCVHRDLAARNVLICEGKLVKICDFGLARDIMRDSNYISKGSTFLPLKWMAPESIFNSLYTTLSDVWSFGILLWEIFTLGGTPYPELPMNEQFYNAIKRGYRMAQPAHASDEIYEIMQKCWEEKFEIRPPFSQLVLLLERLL

The inhibition is the relative decrease from the control value, in per cent. Turning to `Fc1ccc2c(Oc3ccc4nc(NCC5CCCCC5)sc4c3)ccnc2c1` [Example 227, N-(cyclohexylmethyl)-6-(7-fluoroquinolin-4-yloxy)benzo[d]thiazol-2-amine], the inhibition at 1 µM in experiment [1] (compounds of Table 3) turned out to be 100%; in experiment [2] (compounds of Table 3) it was 47%; in experiment [3] (compounds of Table 3), 65%; in experiment [4] (compounds of Table 3), 100%.

In the case of `CNC(=O)c1cc(Oc2ccc3nc(NC4CCC4)oc3c2)ccn1` [Compound 22, 4-(2-Cyclobutylamino-benzooxazol-6-yloxy)-pyridine-2-carboxylic acid methylamide], the inhibition at 1 µM turned out to be 6% in experiment [1] (compounds of Table 3); 21% in experiment [2] (compounds of Table 3); 0% in experiment [2]; 36% in experiment [3] (compounds of Table 3); 100% in experiment [4] (compounds of Table 3); 21% in experiment [4].

With `C[C@H](Nc1nc2ccc(Oc3ccnc(C(=O)NN(C)C)c3)cc2s1)C1CCCCC1` [Example 289, (S)-4-(2-(1-cyclohexylethylamino)benzo[d]thiazol-6-yloxy)-N',N'-dimethylpicolinohydrazide], the inhibition at 1 µM in experiment [1] (compounds of Table 3) was 28%; in experiment [2] (compounds of Table 3), 2%; in experiment [3] (compounds of Table 3), 0%; in experiment [4] (compounds of Table 3), 99%.

Regarding `CNC(=O)c1cc(Oc2ccc3nc(NCC4COc5ccccc5O4)oc3c2)ccn1` (stereo not drawn) [Compound 119, 4-{2-[(2,3-Dihydro-benzo-[1,4]dioxin-2-ylmethyl)-amino]-benzooxazol-6-yloxy}-pyridine-2-carboxylic acid methylamide], the inhibition at 1 µM in experiment [1] was 18%; in experiment [2], 32%; in experiment [3] (MNFS60 cells) it was 13%; in experiment [4], 99%.

With `CNC(=O)c1cc(Oc2ccc3nc(NCC4CCCN(C(=O)NC(C)C)C4)sc3c2)ccn1` (stereo not drawn) [Example 337, 4-(2-((1-(isopropylcarbamoyl)piper-idin-3-yl)methylamino)benzo[d]thiazol-6-yloxy)-N-methylpicolinamide], the inhibition at 1 µM was 14% in experiment [1], 0% in experiment [2], 19% in experiment [3] (MCSF dependent MNFS60 cells) and 95% in experiment [4].

Turning to `CC(C)CCNc1nc2ccc(Oc3ccnc4ccccc34)cc2s1` [Example 253, N-isopentyl-6-(quinolin-4-yloxy)benzo[d]thiazol-2-amine], the inhibition at 1 µM in experiment [1] (compounds of Table 3) amounted to 100%; in experiment [2] (compounds of Table 3), 6%; in experiment [3] (compounds of Table 3) it was 86%; in experiment [4] (compounds of Table 3) it was 100%.

In the case of `CNC(=O)c1cc(Oc2ccc3nc(NCc4c(Cl)cccc4Cl)sc3c2)ccn1` [Compound 158, 4-[2-(2,6-Dichloro-benzylamino)-benzothiazol-6-yloxy]-pyridine-2-carboxylic acid methylamide], the inhibition at 1 µM turned out to be 11% in experiment [1], 2% in experiment [2], 1% in experiment [3] (MNFS60 cells) and 99% in experiment [4].

In the case of `Cn1cc(-c2cc(Oc3ccc4nc(N[C@H](CO)Cc5ccccc5)sc4c3)ccn2)cn1` [Example 351, (S)-2-(6-(2-(1-methyl-1H-pyrazol-4-yl)pyridin-4-yloxy)benzo[d]thiazol-2-ylamino)-3-phenylpropan-1-ol], the inhibition at 1 µM in experiment [1] was found to be 98%; in experiment [2], 79%; in experiment [3] (MCSF dependent MNFS60 cells), 100%; in experiment [4] it was 100%.

For `CNC(=O)c1cc(Oc2ccc3nc(N[C@@H](C)C(C)C)sc3c2)ccn1` [Compound 150], the inhibition at 1 µM was found to be 24% in experiment [1] (compounds of Table 3), 2% in experiment [2] (compounds of Table 3), 22% in experiment [3] (compounds of Table 3) and 100% in experiment [4] (compounds of Table 3).

With `CNC(=O)c1cc(Oc2ccc3nc(NCc4ccc(OC)c(OC)c4)sc3c2)ccn1` [Compound 151, 4-[2-(3,4-Dimethoxy-benzyl-amino)-benzothiazol-6-yloxy]-pyridine-2-carboxylic acid methylamide], the inhibition at 1 µM in experiment [1] is 5%; in experiment [2] it was 0%; in experiment [3] (MNFS60 cells), 26%; in experiment [4] it was 99%.

The values are drawn from patent US8173689B2 (Novartis AG, priority 2006, dated 2012).
